Assay: maximum solubility in PBS + solutol
Assay type: physicochemical
Details: aqueous with cosolvent or surfactant or cyclodextrin

Work on C[C@]12CCCO[C@H]1Cn1cc(C(=O)NCc3ccc(F)cc3F)c(=O)c(O)c1C2=O [active ingredient 1, (4aS,11aR)-N-(2,4-difluorobenzyl)-6-hydroxy-4a-methyl-5,7-dioxo-2,3,4,4a,5,7,11,11a-octahydropyrano[3,2-b]quinolizine-8-carboxamide] yielded a solubility (in PBS+2 wt % solutol) of 0.15 mg/mL and a solubility (in PBS+5 wt % solutol) of 0.26 mg/mL.
With CCN1C[C@@H]2C[C@@H](OC)c3c(C(=O)NCc4ccc(F)cc4F)c(=O)c(O)c(n32)C1=O [active ingredient 2, (3aS,5R)-N-(2,4-difluorobenzyl)-2-ethyl-8-hydroxy-5-methoxy-1,7-dioxo-2,3,3a,4,5,7-hexahydro-1H-pyrazino[2,1,6-cd]indolizine-6-carboxamide] the solubility (in PBS+2 wt % solutol) was 0.31 mg/mL.
